Results as given in patent US12545673B2, “Imidazopyridine derivative and pharmaceutical composition comprising same as active ingredient” (TSD LIFE SCIENCES CO., LTD., priority 2019, dated 2026).
Where two headings read alike, the source gives them in different places.

Key:
LRRK2 wild-type = LRRK2 wild-type (Homo sapiens (Human), UniProt Q5S007); experiment: Evaluation of inhibitory activity against LRRK2 (affinity bead competition binding), wild-type; conditions: read-out: Residual active values (%) LRRK2; for remaining binding at 0.1 µM: 100 nM; for remaining binding at 0.5 µM: 500 nM
Experimental: (§1) In order to identify the activity inhibitory effect on the LRRK2 wild-type and LRRK2 mutant (G2019S) kinase of the example compound according to the present disclosure, BL21-derived E. coli bacteria (E. coli) were cultured in a 24-well plate until the growth phase (log phase). After culturing, T7 phage tagged with LRRK2 wild-type or LRRK2 mutant (G2019S) was used to infect the multiplicity of infection (MOI) at 0.4. Thereafter, the E. coli bacteria were stirred at 32° C. for 90 to 150 minutes to allow dissolution. The lysate of E. coli bacteria was centrifuged (6,000×g) and filtered (0.2 μm), and the obtained tagged T7 phage […] a DNA-tagged kinase protein (LRRK2 or LRRK2 G2019S) was obtained.
(§2) After blocking the biotinylated ligand with extra biotin, it is washed with Pierce's buffer, SeaBlock (1% BSA, 0.05% Tween 20, 1 mM DTT) to remove unbound ligand and reduce non-specific binding.
(§3) The compound was prepared at a concentration of 40× in 100% DMSO and used after dilution, and all binding reactions were performed in a final volume of 0.02 ml in a 384-well plate.
(§4) The activity inhibitory effect on the LRRK2 wild-type and LRRK2 mutant (G2019S) kinases of the example compounds according to the present disclosure was measured and shown in Table 10 below.

MLK3 = MLK3 (Homo sapiens (Human), UniProt Q16584); experiment: Evaluation of inhibitory activity of enzyme units, MLK3 ([γ-33P]-ATP filter assay); conditions: read-out: IC50(nM) MLK3
α-SMA = experiment: Fibrosis inhibition evaluation 2, palmitic acid-induced HepG2, real-time PCR, α-SMA; conditions: palmitic acid-induced HepG2 (Table 8)
TGF-β1 = experiment: Fibrosis inhibition evaluation 2, palmitic acid-induced HepG2, real-time PCR, TGF-β1
Fibronectin-1 = experiment: Fibrosis inhibition evaluation 2, palmitic acid-induced HepG2, real-time PCR, Fibronectin-1
LRRK2 mutant (G2019S) = LRRK2 mutant (G2019S) (Homo sapiens (Human), UniProt Q5S007, G2019S); experiment: Evaluation of inhibitory activity against LRRK2 (affinity bead competition binding), G2019S mutant; conditions: read-out: Residual active values (%) LRRK2(G2019S); for remaining binding at 0.1 µM: 100 nM; for remaining binding at 0.5 µM: 500 nM
Experimental: as §1, §2, §3, §4

[1] = system: acute myeloid leukemia cell line U937; experiment: Cancer cell proliferation inhibitory activity evaluation 2 (CCK-8), U937; type: cell-based; conditions: Homo sapiens, read-out: Cancer cell proliferation inhibitory activity U937
[2] = system: acute lymphoblastic leukemia cell line Jurkat; experiment: Cancer cell proliferation inhibitory activity evaluation 2 (CCK-8), Jurkat; type: cell-based; conditions: Homo sapiens
MLK1 = MLK1 (Homo sapiens (Human), UniProt P80192); experiment: Evaluation of inhibitory activity of enzyme units, MLK1 ([γ-33P]-ATP filter assay); type: biochemical
[3] = system: gastric cancer cell line AGS; experiment: Cancer cell proliferation inhibitory activity evaluation 2 (CCK-8), AGS; type: cell-based; conditions: Homo sapiens, read-out: Cancer cell proliferation inhibitory activity AGS
[4] = system: gastric cancer cell line Hs746T; experiment: Cancer cell proliferation inhibitory activity evaluation 2 (CCK-8), Hs746T; type: cell-based; conditions: Homo sapiens
[5] = system: human lung cancer cell line A549; experiment: Cancer cell proliferation inhibitory activity evaluation 2 (CCK-8), A549; type: cell-based
[6] = U-937, 10 μM, 72 hours, CCK-8 (Table 3)
[7] = 10 μM, 72 hours, CCK-8, read-out: Cancer cell proliferation inhibitory activity Jurkat
[8] = 10 μM, 72 hours, CCK-8, read-out: Cancer cell proliferation inhibitory activity Hs746T
[9] = A549, 10 μM, 72 hours, CCK-8, read-out: Cancer cell proliferation inhibitory activity A549
[10] = 72 h, read-out: Cancer cell proliferation inhibitory activity Jurkat

MLK1, sequence (P80192 whole entry, looked up): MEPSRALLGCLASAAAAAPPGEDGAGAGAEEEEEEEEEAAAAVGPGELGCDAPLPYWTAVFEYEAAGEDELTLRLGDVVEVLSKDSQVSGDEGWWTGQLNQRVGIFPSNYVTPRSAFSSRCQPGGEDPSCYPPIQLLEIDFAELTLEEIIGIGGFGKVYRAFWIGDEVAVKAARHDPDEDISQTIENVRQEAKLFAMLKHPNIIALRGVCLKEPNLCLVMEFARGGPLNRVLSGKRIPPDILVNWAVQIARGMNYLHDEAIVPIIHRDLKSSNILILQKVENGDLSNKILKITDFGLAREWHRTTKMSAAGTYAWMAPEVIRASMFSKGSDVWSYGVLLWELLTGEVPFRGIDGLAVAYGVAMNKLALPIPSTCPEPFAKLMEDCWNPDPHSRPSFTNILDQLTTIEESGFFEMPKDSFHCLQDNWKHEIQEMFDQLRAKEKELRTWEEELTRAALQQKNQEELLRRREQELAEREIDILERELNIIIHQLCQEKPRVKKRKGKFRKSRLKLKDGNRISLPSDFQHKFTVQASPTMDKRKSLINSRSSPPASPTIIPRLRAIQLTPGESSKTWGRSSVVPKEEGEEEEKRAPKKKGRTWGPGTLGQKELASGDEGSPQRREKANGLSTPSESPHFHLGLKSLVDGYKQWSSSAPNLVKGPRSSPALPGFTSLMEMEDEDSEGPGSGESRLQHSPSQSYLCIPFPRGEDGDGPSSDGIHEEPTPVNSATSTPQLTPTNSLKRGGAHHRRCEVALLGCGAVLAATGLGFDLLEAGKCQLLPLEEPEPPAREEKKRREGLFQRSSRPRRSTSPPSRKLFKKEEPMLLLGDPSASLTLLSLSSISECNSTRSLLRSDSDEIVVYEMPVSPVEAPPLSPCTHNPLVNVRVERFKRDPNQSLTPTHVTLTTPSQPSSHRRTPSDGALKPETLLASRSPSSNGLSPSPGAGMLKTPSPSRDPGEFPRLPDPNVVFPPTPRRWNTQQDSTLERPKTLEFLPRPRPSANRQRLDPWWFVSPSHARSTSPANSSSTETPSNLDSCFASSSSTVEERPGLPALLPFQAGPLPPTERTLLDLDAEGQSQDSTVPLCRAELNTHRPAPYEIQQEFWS
LRRK2 wild-type, sequence (Q5S007 whole entry, looked up): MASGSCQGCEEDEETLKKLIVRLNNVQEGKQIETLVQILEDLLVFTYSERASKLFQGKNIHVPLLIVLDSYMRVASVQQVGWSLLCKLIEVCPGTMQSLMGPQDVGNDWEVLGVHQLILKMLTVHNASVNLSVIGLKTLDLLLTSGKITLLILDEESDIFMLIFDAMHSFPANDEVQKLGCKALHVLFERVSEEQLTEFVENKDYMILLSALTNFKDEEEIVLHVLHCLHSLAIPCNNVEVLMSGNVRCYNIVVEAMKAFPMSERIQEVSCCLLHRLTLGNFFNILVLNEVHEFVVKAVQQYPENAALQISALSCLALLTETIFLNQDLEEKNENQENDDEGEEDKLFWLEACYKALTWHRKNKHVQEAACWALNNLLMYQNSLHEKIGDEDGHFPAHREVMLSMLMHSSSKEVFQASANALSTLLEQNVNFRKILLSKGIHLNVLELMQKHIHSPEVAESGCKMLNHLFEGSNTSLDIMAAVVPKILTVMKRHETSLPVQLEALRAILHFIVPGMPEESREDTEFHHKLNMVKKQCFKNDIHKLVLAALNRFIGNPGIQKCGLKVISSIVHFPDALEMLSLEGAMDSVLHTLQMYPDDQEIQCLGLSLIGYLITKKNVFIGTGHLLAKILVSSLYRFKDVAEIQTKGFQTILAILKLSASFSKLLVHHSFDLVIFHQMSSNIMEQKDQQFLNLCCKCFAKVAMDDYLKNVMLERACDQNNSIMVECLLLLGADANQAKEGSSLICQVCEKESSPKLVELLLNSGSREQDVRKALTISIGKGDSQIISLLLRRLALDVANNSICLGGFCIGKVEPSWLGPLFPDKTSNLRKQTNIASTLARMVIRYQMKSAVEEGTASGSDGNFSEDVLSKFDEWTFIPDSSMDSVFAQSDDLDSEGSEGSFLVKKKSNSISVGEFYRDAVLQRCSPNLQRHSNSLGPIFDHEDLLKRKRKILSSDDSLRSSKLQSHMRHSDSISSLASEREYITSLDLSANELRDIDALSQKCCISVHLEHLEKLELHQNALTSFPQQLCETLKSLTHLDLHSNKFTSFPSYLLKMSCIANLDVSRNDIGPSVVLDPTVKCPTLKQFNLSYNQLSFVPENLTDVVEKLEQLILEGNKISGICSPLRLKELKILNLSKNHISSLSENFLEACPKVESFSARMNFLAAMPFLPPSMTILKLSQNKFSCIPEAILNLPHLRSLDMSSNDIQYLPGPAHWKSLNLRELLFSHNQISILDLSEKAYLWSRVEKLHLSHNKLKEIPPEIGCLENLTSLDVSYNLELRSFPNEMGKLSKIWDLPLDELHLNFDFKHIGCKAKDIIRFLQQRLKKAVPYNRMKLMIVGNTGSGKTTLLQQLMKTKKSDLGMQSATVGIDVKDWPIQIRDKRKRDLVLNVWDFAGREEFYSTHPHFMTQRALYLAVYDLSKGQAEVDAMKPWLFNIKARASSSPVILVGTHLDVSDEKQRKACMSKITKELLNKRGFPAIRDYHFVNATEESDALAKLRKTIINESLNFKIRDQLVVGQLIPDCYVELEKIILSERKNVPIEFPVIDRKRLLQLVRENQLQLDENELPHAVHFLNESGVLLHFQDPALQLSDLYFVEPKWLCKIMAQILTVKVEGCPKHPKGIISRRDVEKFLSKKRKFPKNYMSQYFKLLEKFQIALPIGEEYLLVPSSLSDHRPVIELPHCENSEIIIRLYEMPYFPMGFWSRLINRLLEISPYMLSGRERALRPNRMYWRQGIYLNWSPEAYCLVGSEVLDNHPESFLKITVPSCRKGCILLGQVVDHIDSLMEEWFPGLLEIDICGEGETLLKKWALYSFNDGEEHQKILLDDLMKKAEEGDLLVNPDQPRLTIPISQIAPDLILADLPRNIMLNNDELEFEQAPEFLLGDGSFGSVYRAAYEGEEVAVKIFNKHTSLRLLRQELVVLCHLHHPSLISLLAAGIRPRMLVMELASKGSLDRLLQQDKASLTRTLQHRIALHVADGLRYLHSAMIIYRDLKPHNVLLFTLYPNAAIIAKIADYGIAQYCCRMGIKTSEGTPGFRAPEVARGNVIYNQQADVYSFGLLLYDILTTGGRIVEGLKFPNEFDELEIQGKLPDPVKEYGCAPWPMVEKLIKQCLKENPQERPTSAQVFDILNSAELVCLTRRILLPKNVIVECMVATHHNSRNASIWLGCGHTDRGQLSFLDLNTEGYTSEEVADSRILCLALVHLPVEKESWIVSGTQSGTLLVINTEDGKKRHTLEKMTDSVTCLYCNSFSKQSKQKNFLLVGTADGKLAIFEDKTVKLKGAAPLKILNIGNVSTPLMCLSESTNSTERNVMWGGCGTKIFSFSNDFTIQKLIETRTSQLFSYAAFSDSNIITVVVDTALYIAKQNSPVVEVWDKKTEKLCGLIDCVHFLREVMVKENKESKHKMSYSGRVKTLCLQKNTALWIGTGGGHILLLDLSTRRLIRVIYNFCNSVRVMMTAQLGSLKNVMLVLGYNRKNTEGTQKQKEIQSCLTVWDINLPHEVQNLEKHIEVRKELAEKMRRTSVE
LRRK2 mutant (G2019S), sequence (Q5S007 whole entry G2019S, looked up): as the sequence (Q5S007 whole entry, looked up) above, with G2019S counted along it
MLK3, sequence (Q16584 whole entry, looked up): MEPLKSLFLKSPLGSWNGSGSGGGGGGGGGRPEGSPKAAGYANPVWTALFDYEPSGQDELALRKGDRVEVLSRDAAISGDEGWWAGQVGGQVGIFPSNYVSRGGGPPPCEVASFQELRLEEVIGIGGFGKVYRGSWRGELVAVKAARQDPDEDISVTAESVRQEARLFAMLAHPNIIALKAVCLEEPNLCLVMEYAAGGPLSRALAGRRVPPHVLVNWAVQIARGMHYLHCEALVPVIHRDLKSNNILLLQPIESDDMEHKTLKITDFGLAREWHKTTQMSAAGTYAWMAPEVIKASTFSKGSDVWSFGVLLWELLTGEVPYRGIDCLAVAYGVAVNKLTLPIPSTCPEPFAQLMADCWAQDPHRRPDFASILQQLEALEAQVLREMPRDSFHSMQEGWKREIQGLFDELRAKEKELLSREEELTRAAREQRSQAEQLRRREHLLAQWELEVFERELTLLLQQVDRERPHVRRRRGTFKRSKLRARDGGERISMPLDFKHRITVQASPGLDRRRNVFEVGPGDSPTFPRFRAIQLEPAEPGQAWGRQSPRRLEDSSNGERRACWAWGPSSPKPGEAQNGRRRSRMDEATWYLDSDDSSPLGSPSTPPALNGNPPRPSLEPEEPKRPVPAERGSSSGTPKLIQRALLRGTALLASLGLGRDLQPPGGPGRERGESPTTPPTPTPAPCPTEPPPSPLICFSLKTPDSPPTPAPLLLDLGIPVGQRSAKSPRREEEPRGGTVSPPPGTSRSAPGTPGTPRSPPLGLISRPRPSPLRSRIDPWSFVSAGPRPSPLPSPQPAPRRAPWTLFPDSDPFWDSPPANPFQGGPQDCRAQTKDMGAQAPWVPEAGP

SMILES | remaining binding at 0.1 µM (LRRK2 wild-type) | remaining binding at 0.5 µM (LRRK2 wild-type) | IC50 (MLK3) | Relative degree of expression inhibition (%) α-SMA (α-SMA) | Relative degree of expression inhibition (%) TGF-β1 (TGF-β1) | Relative degree of expression inhibition (%) Fibronectin-1 (Fibronectin-1) | remaining binding at 0.1 µM (LRRK2 mutant (G2019S)) | remaining binding at 0.5 µM (LRRK2 mutant (G2019S)) | inhibition at 10 µM [1, 6] | inhibition at 10 µM [2, 7] | IC50 (MLK1) | inhibition at 10 µM ([3]; 10 μM, 72 hours, CCK-8) | inhibition at 10 µM [4, 8] | inhibition at 10 µM [5, 9] | inhibition at 10 µM ([1]; U-937, 72 h) | inhibition at 10 µM [2, 10] | inhibition at 10 µM ([3]; 72 h) | inhibition at 10 µM ([4]; 72 h, read-out: Cancer cell proliferation inhibitory activity Hs746T) | inhibition at 10 µM ([5]; A549, 72 h, read-out: Cancer cell proliferation inhibitory activity A549)
CCS(=O)(=O)N1CC[C@H](Nc2c(Br)cnc3nc(-c4cc(C)n(-c5cc(NC(=O)CN6CCN(C)CC6)ccc5C)c4C)[nH]c23)C1 [Example 76, N-(3-(3-(6-bromo-7-(((S)-1-(ethylsulfonyl)pyrrolidine-3-yl)amino)-1H-imidazo[4,5-b]pyridine-2-yl)-2,5-dimethyl-1H-pyrrol-1-yl)-4-methylphenyl)-2-(4-methylpiperazine-1-yl) acetamide] | 3.6% | 1.1% | 63 nM | 69.54% | 121.79% | 93.95% | 0.9% | 0.1% | – | – | – | – | – | – | – | – | – | – | –
Cc1ccc(C(=O)N2CCN(C)CC2)cc1-n1c(C)cc(-c2nc3ncc(Br)c(Nc4cccc(S(N)(=O)=O)c4)c3[nH]2)c1C [Example 95, 3-((6-bromo-2-(2,5-dimethyl-1-(2-methyl-5-(4-methylpiperazine-1-carbonyl)phenyl)-1H-pyrrol-3-yl)-1H-imidazo[4,5-b]pyridine-7-yl)amino)benzenesulfonamide] | 68% | 43% | 60 nM | 67.81% | 45.25% | 65.78% | 79% | 24% | < 10% | 10 to 50% | 37 nM | 10 to 50% | 10 to 50% | < 10% | – | – | – | – | –
CCS(=O)(=O)N1CC[C@H](Nc2c(Br)cnc3[nH]c(-c4cc(C)n(-c5cccc(C(=O)O)c5)c4C)nc23)C1 [Example 58, (S)-3-(3-(6-bromo-7-((1-(ethylsulfonyl)pyrrolidine-3-yl)amino)-3H-imidazo[4,5-b]pyridine-2-yl)-2,5-dimethyl-1H-pyrrol-1-yl)benzoic acid] | 5% | 0.7% | 53 nM | 66.53% | 48.93% | 69.83% | 1.4% | 0.2% | < 10% | < 10% | – | < 10% | < 10% | < 10% | – | – | – | – | –
CCS(=O)(=O)N1CC[C@H](Nc2ccnc3nc(-c4cc(C)n(-c5ccc(OCCN6CCOCC6)cc5)c4C)[nH]c23)C1 [Example 53, (S)-2-(2,5-dimethyl-1-(4-(2-morpholinoethoxy)phenyl)-1H-pyrrol-3-yl)-N-(1-(ethylsulfonyl)pyrrolidine-3-yl)-1H-imidazo[4,5-b]pyridine-7-amine] | – | – | 23200 nM | 74.74% | 33.15% | 69.92% | – | – | – | – | 10600 nM | – | – | – | – | – | – | – | –
Cc1ccc(C(=O)NCCN(C)C)cc1-n1c(C)cc(-c2nc3ncc(Br)c(Nc4cccc(S(N)(=O)=O)c4)c3[nH]2)c1C [Example 96, 3-(3-(6-bromo-7-((3-sulfamoylphenyl)amino)-1H-imidazo[4,5-b]pyridine-2-yl)-2,5-dimethyl-1H-pyrrol-1-yl)-N-(2-(dimethylamino)ethyl)-4-methylbenzamide] | 0.4% | 0% | 137 nM | 37.83% | 92.86% | 61.67. % | 0.8% | 0.6% | < 10% | < 10% | 145 nM | < 10% | 10 to 50% | < 10% | – | – | – | – | –
Cc1cc(-c2nc3c(Nc4cccc(S(N)(=O)=O)c4)c(Br)cnc3[nH]2)c(C)n1-c1cc(S(N)(=O)=O)ccc1Cl [Example 36, 3-(3-(6-bromo-7-((3-sulfamoylphenyl)amino)-3H-imidazo[4,5-b]pyridine-2-yl)-2,5-dimethyl-1H-pyrrole-1-yl)-4-chlorobenzenesulfonamide] | – | – | 46 nM | 79.46% | 66.72% | 82.94% | – | – | < 10% | < 10% | – | < 10% | – | – | – | – | – | – | –
CCS(=O)(=O)N1CC[C@H](Nc2c(Br)cnc3nc(-c4cc(C)n(-c5cc(C(=O)NCCN(C)C)ccc5C)c4C)[nH]c23)C1 [Example 93, 3-(3-(6-bromo-7-(((S)-1-(ethylsulfonyl)pyrrolidine-3-yl)amino)-1H-imidazo[4,5-b]pyridine-2-yl)-2,5-dimethyl-1H-pyrrol-1-yl)-N-(2-(dimethylamino)ethyl)-4-methylbenzamide] | 60% | 51% | 54 nM | 73.82% | 42.54% | 74.05% | 66% | 25% | – | – | 33 nM | – | – | – | > 50% | > 50% | > 50% | > 50% | 10 to 50%
Cc1ccc(NC(=O)CN2CCOCC2)cc1-n1c(C)cc(-c2nc3ncc(Br)c(Nc4cccc(S(N)(=O)=O)c4)c3[nH]2)c1C [Example 88, N-(3-(3-(6-bromo-7-((3-sulfamoylphenyl)amino)-1H-imidazo[4,5-b]pyridine-2-yl)-2,5-dimethyl-1H-pyrrol-1-yl)-4-methylphenyl)-2-morpholinoacetamide] | 73% | 46% | 52 nM | 74.86% | 56.45% | 86.78% | 57% | 19% | 10 to 50% | > 50% | 82 nM | > 50% | > 50% | 10 to 50% | – | – | – | – | –
CCS(=O)(=O)N1CC[C@H](Nc2c(Br)cnc3[nH]c(-c4cc(C)n(-c5cccc(S(=O)(=O)N6CCOCC6)c5)c4C)nc23)C1 [Example 11, (S)-6-bromo-2-(2,5-dimethyl-1-(3-(morpholinosulfonyl)phenyl)-1H-pyrrol-3-yl)-N-(1-(ethylsulfonyl)pyrrolidine-3-yl)-3H-imidazo[4,5-b]pyridine-7-amine] | 28% | 6.9% | 7 nM | 24.73% | 99.40% | 86.85% | 7.9% | 1.7% | – | – | – | – | – | – | 10 to 50% | > 50% | > 50% | – | –
